System: 186277-243-T-J2-PDC complex spheroid viability
Assay: Anticancer human tumor 186277-243-T-J2-PDC patient-derived colon adenocarcinoma cell line growth inhibition
Settings: for IC50: curve of first compound; for viability, T/C: stronger effect = lower value
In short: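 Complex spheroids of tumor cells with HUVEC and human MSCs, exposed to iadademstat combined with other agents. Each agent tested in half-log steps from near clinical Cmax (else 10 microM top), DMSO ≤0.25%.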

[1] = second compound 0.1 µM, first compound 0.0316 µM
[2] = second compound 0.1 µM, first compound 0.1 µM
[3] = second compound 0.1 µM, first compound 0.316 µM
[4] = second compound 0.1 µM, first compound 1 µM
[5] = second compound 0.316 µM, first compound 0.0316 µM
[6] = second compound 0.316 µM, first compound 0.1 µM
[7] = second compound 0.316 µM, first compound 0.316 µM
[8] = second compound 0.316 µM, first compound 1 µM
[9] = second compound 1 µM, first compound 0.0316 µM
[10] = second compound 1 µM, first compound 0.1 µM
[11] = second compound 1 µM, first compound 0.316 µM
[12] = second compound 1 µM, first compound 1 µM
[13] = second compound 3.16 µM, first compound 0.0316 µM
[14] = second compound 3.16 µM, first compound 0.1 µM
[15] = second compound 3.16 µM, first compound 0.316 µM
[16] = second compound 3.16 µM, first compound 1 µM
[17] = second compound 10 µM, first compound 0.0316 µM
[18] = second compound 10 µM, first compound 0.1 µM
[19] = second compound 10 µM, first compound 0.316 µM
[20] = second compound 10 µM, first compound 1 µM
[21] = second compound 0.1 µM, first compound 0.00316 µM
[22] = second compound 0.1 µM, first compound 0.01 µM
[23] = second compound 0.316 µM, first compound 0.00316 µM
[24] = second compound 0.316 µM, first compound 0.01 µM
[25] = second compound 1 µM, first compound 0.00316 µM
[26] = second compound 1 µM, first compound 0.01 µM
[27] = second compound 3.16 µM, first compound 0.00316 µM
[28] = second compound 3.16 µM, first compound 0.01 µM
[29] = second compound 10 µM, first compound 0.00316 µM
[30] = second compound 10 µM, first compound 0.01 µM
[31] = second compound 0.1 µM, first compound 0.00949 µM
[32] = second compound 0.1 µM, first compound 0.03 µM
[33] = second compound 0.1 µM, first compound 0.0949 µM
[34] = second compound 0.1 µM, first compound 0.3 µM
[35] = second compound 0.1 µM, first compound 0.949 µM
[36] = second compound 0.1 µM, first compound 3 µM
[37] = second compound 0.316 µM, first compound 0.00949 µM
[38] = second compound 0.316 µM, first compound 0.03 µM
[39] = second compound 0.316 µM, first compound 0.0949 µM
[40] = second compound 0.316 µM, first compound 0.3 µM
[41] = second compound 0.316 µM, first compound 0.949 µM
[42] = second compound 0.316 µM, first compound 3 µM
[43] = second compound 1 µM, first compound 0.00949 µM
[44] = second compound 1 µM, first compound 0.03 µM
[45] = second compound 1 µM, first compound 0.0949 µM
[46] = second compound 1 µM, first compound 0.3 µM
[47] = second compound 1 µM, first compound 0.949 µM
[48] = second compound 1 µM, first compound 3 µM
[49] = second compound 3.16 µM, first compound 0.00949 µM
[50] = second compound 3.16 µM, first compound 0.03 µM
[51] = second compound 3.16 µM, first compound 0.0949 µM
[52] = second compound 3.16 µM, first compound 0.3 µM
[53] = second compound 3.16 µM, first compound 0.949 µM
[54] = second compound 3.16 µM, first compound 3 µM
[55] = second compound 10 µM, first compound 0.00949 µM
[56] = second compound 10 µM, first compound 0.03 µM
[57] = second compound 10 µM, first compound 0.0949 µM
[58] = second compound 10 µM, first compound 0.3 µM
[59] = second compound 10 µM, first compound 0.949 µM
[60] = second compound 10 µM, first compound 3 µM
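Further: 7 day exposure to compounds.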
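Wherever viability, T/C is given: 100% = DMSO vehicle control viability.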

Compound: CC1(C)CCC(CN2CCN(c3ccc(C(=O)NS(=O)(=O)c4ccc(NCC5CCOCC5)c([N+](=O)[O-])c4)c(Oc4cnc5[nH]ccc5c4)c3)CC2)=C(c2ccc(Cl)cc2)C1 + NC1CC1c1ccc(-c2cccc(O)c2)cc1
- IC50 (second compound 0.1 µM): 2230 nM
- IC50 (second compound 0.316 µM): 2260 nM
- IC50 (second compound 1 µM): 2240 nM
- IC50 (second compound 3.16 µM): 2410 nM
- IC50 (second compound 10 µM): 2150 nM
- viability, T/C [1]: 106%
- viability, T/C [2]: 101%
- viability, T/C [3]: 117%
- viability, T/C [4]: 99.1%
- viability, T/C (second compound 0.1 µM, first compound 3.16 µM): 28.4%
- viability, T/C (second compound 0.1 µM, first compound 10 µM): 0.17%
- viability, T/C [5]: 98.2%
- viability, T/C [6]: 97.4%
- viability, T/C [7]: 108%
- viability, T/C [8]: 98.8%
- viability, T/C (second compound 0.316 µM, first compound 3.16 µM): 29.9%
- viability, T/C (second compound 0.316 µM, first compound 10 µM): 0.15%
- viability, T/C [9]: 102%
- viability, T/C [10]: 106%
- viability, T/C [11]: 98.5%
- viability, T/C [12]: 91.3%
- viability, T/C (second compound 1 µM, first compound 3.16 µM): 32.6%
- viability, T/C (second compound 1 µM, first compound 10 µM): 0.14%
- viability, T/C [13]: 106%
- viability, T/C [14]: 101%
- viability, T/C [15]: 107%
- viability, T/C [16]: 94.4%
- viability, T/C (second compound 3.16 µM, first compound 3.16 µM): 36.4%
- viability, T/C (second compound 3.16 µM, first compound 10 µM): 0.15%
- viability, T/C [17]: 107%
- viability, T/C [18]: 107%
- viability, T/C [19]: 101%
- viability, T/C [20]: 99.7%
- viability, T/C (second compound 10 µM, first compound 3.16 µM): 25%
- viability, T/C (second compound 10 µM, first compound 10 µM): 0.2%

Compound: COc1cc(Nc2ncc3c(n2)-c2ccc(Cl)cc2C(c2c(F)cccc2OC)=NC3)ccc1C(=O)O + NC1CC1c1ccc(-c2cccc(O)c2)cc1
- IC50 (second compound 0.1 µM): > 1000 nM
- IC50 (second compound 0.316 µM): > 1000 nM
- IC50 (second compound 1 µM): > 1000 nM
- IC50 (second compound 3.16 µM): > 1000 nM
- IC50 (second compound 10 µM): > 1000 nM
- viability, T/C [21]: 128%
- viability, T/C [22]: 115%
- viability, T/C [1]: 116%
- viability, T/C [2]: 107%
- viability, T/C [3]: 124%
- viability, T/C [4]: 111%
- viability, T/C [23]: 133%
- viability, T/C [24]: 125%
- viability, T/C [5]: 119%
- viability, T/C [6]: 108%
- viability, T/C [7]: 124%
- viability, T/C [8]: 109%
- viability, T/C [25]: 140%
- viability, T/C [26]: 132%
- viability, T/C [9]: 130%
- viability, T/C [10]: 117%
- viability, T/C [11]: 131%
- viability, T/C [12]: 114%
- viability, T/C [27]: 155%
- viability, T/C [28]: 143%
- viability, T/C [13]: 143%
- viability, T/C [14]: 126%
- viability, T/C [15]: 128%
- viability, T/C [16]: 111%
- viability, T/C [29]: 137%
- viability, T/C [30]: 139%
- viability, T/C [17]: 130%
- viability, T/C [18]: 123%
- viability, T/C [19]: 120%
- viability, T/C [20]: 89.8%

Compound: Cn1ncnc1C1c2n[nH]c(=O)c3cc(F)cc(c23)NC1c1ccc(F)cc1 (stereo not given) + NC1CC1c1ccc(-c2cccc(O)c2)cc1
- IC50 (second compound 0.1 µM): > 100 nM
- IC50 (second compound 0.316 µM): > 100 nM
- IC50 (second compound 1 µM): > 100 nM
- IC50 (second compound 3.16 µM): > 100 nM
- IC50 (second compound 10 µM): > 100 nM
- viability, T/C (second compound 0.1 µM, first compound 0.000316 µM): 110%
- viability, T/C (second compound 0.1 µM, first compound 0.001 µM): 109%
- viability, T/C [21]: 112%
- viability, T/C [22]: 110%
- viability, T/C [1]: 106%
- viability, T/C [2]: 115%
- viability, T/C (second compound 0.316 µM, first compound 0.000316 µM): 113%
- viability, T/C (second compound 0.316 µM, first compound 0.001 µM): 110%
- viability, T/C [23]: 93.8%
- viability, T/C [24]: 97.7%
- viability, T/C [5]: 100%
- viability, T/C [6]: 106%
- viability, T/C (second compound 1 µM, first compound 0.000316 µM): 113%
- viability, T/C (second compound 1 µM, first compound 0.001 µM): 114%
- viability, T/C [25]: 120%
- viability, T/C [26]: 104%
- viability, T/C [9]: 108%
- viability, T/C [10]: 110%
- viability, T/C (second compound 3.16 µM, first compound 0.000316 µM): 110%
- viability, T/C (second compound 3.16 µM, first compound 0.001 µM): 115%
- viability, T/C [27]: 112%
- viability, T/C [28]: 107%
- viability, T/C [13]: 113%
- viability, T/C [14]: 110%
- viability, T/C (second compound 10 µM, first compound 0.000316 µM): 110%
- viability, T/C (second compound 10 µM, first compound 0.001 µM): 106%
- viability, T/C [29]: 127%
- viability, T/C [30]: 109%
- viability, T/C [17]: 104%
- viability, T/C [18]: 100%

Compound: NS(=O)(=O)OCC1CC(n2ccc3c(NC4CCc5ccccc54)ncnc32)CC1O (stereo not given) + NC1CC1c1ccc(-c2cccc(O)c2)cc1
- IC50 (second compound 0.1 µM): 249 nM
- IC50 (second compound 0.316 µM): 303 nM
- IC50 (second compound 1 µM): 319 nM
- IC50 (second compound 3.16 µM): 397 nM
- IC50 (second compound 10 µM): 265 nM
- viability, T/C [31]: 98.8%
- viability, T/C [32]: 89.8%
- viability, T/C [33]: 76.8%
- viability, T/C [34]: 47.3%
- viability, T/C [35]: 11%
- viability, T/C [36]: 4.48%
- viability, T/C [37]: 104%
- viability, T/C [38]: 101%
- viability, T/C [39]: 82.3%
- viability, T/C [40]: 53.9%
- viability, T/C [41]: 11.7%
- viability, T/C [42]: 3.87%
- viability, T/C [43]: 116%
- viability, T/C [44]: 96.8%
- viability, T/C [45]: 85.1%
- viability, T/C [46]: 55.9%
- viability, T/C [47]: 14.4%
- viability, T/C [48]: 4.26%
- viability, T/C [49]: 116%
- viability, T/C [50]: 98.2%
- viability, T/C [51]: 84.4%
- viability, T/C [52]: 69%
- viability, T/C [53]: 12.8%
- viability, T/C [54]: 3.82%
- viability, T/C [55]: 107%
- viability, T/C [56]: 90.6%
- viability, T/C [57]: 73.4%
- viability, T/C [58]: 52.8%
- viability, T/C [59]: 14%
- viability, T/C [60]: 3.25%

Compound: O=C(C=Cc1cccc(S(=O)(=O)Nc2ccccc2)c1)NO + NC1CC1c1ccc(-c2cccc(O)c2)cc1
- IC50 (second compound 0.1 µM): 240 nM
- IC50 (second compound 0.316 µM): 237 nM
- IC50 (second compound 1 µM): 260 nM
- IC50 (second compound 3.16 µM): 268 nM
- IC50 (second compound 10 µM): 238 nM
- viability, T/C [31]: 104%
- viability, T/C [32]: 103%
- viability, T/C [33]: 94%
- viability, T/C [34]: 23.5%
- viability, T/C [35]: 3.89%
- viability, T/C [36]: 91.1%
- viability, T/C [37]: 106%
- viability, T/C [38]: 113%
- viability, T/C [39]: 90.8%
- viability, T/C [40]: 25.9%
- viability, T/C [41]: 3.14%
- viability, T/C [42]: 89.5%
- viability, T/C [43]: 116%
- viability, T/C [44]: 101%
- viability, T/C [45]: 109%
- viability, T/C [46]: 23.3%
- viability, T/C [47]: 3.06%
- viability, T/C [48]: 98.7%
- viability, T/C [49]: 118%
- viability, T/C [50]: 106%
- viability, T/C [51]: 111%
- viability, T/C [52]: 26%
- viability, T/C [53]: 3.1%
- viability, T/C [54]: 101%
- viability, T/C [55]: 99.3%
- viability, T/C [56]: 96.8%
- viability, T/C [57]: 87.5%
- viability, T/C [58]: 21.8%
- viability, T/C [59]: 1.11%
- viability, T/C [60]: 99%

— PubChem BioAssay AID1918933 (Molecular Pharmacology Branch, DTP, NCI, 2023)
